Data as given in US20220356472A1, “METHODS AND COMPOSITIONS FOR TYPE 2 DIABETES THERAPY” (Sanford Burnham Prebys Medical Discovery Institute, priority 2019, published 2022).

Columns and labels:
Assay type in all cases: cell-based, mouse
[1] = test system: islets isolated from WT C57BL/6 mice; assay: Gene expression in isolated islets treated with compounds
Method: For this purpose, the effect of a membrane-permeable intracellular Ca^2+-chelator, BAPTA-AM was tested on islets isolated from WT C57BL/6 mice. An overnight incubation with BAPTA-AM (10 μM) reduced both Ins1 and Ins2 mRNA levels (FIG. 6A, “Insulin” panel, Ctrl versus BAPTA-AM). […] On the other hand, tunicamycin (Tm, 0.5 μg/mL) in combination with BAPTA-AM rescued both Ins1 and Ins2 mRNA levels. Concomitantly, Chop and sXBP1 mRNAs, as well as MP mRNA were induced by Tm treatment (FIG. 6A, BAPTA-AM columns versus BAPTA/Tm columns).

[2] = test system: islets isolated from WT C57BL/6 mice; assay: as above; conditions: HFn 50 nM, vs Ctrl
WT and Chop βKO islets = assay: Ins1/Ins2 transcription in independent batch of islets treated with tunicamycin; conditions: tunicamycin 5 μg/mL
[3] = BAPTA-AM 10 μM, overnight incubation, vs Ctrl
[4] = Tm 0.5 μg/mL in combination with BAPTA-AM, vs BAPTA-AM

CC(=O)OCOC(=O)CN(CC(=O)OCOC(C)=O)c1ccccc1OCCOc1ccccc1N(CC(=O)OCOC(C)=O)CC(=O)OCOC(C)=O [BAPTA-AM]
Chop level [1, 3]: reduced | Ins1 mRNA level [1, 3]: reduced | Ins2 mRNA level [1, 3]: reduced | sXBP1 level [1, 3]: reduced

O=C(CC1NCCCC1O)Cn1cnc2cc(Br)c(Cl)cc2c1=O (centres unmarked) [halofuginone]
ATF4 induction [2]: pronounced ATF4 and Chop induction | Chop induction [2]: pronounced ATF4 and Chop induction | Ins1 mRNA [2]: reduced | Ins2 mRNA [2]: reduced

tunicamycin
Chop mRNA [1, 4]: induced | Ins1 mRNA level [1, 4]: rescued | Ins2 mRNA level [1, 4]: rescued | MP mRNA [1, 4]: induced | sXBP1 mRNA [1, 4]: induced | Ins1/Ins2 transcription (WT and Chop βKO islets): positive regulation
